According to patent publication US20090137572A1, “2-substituted-4-heteroaryl-pyrimidines useful for the treatment of proliferative disorders” (priority 2004, published 2009):

Tests used:
[1] = target: CDK2-cycline E (Homo sapiens, UniProt P24941); test: Kinase assay (radioactive phosphate incorporation), CDK2-cyclin E; assay type: biochemical; details: read-out: Kinase Inhibition pIC50 CDK2-cycline E (converted)
Outline: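 Radiometric filter-binding format: recombinant kinase + substrate, pH 7.4 MOPS buffer with EGTA, DTT, vanadate; 100 μM ATP/[γ-32P]-ATP, 15 mM MgCl2; 30° C; stopped on ice, P81 or GF/C filtration, scintillation read.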

[2] = target: T1, Aurora A kinase (Homo sapiens, UniProt O14965); test: Aurora-A (human) kinase assay (Kemptide substrate); assay type: biochemical; details: pIC50 is -log(IC50, M); 15 μM ATP; read-out: Kinase Inhibition pIC50 Aurora A kinase (converted)
T1 construct: purchased
T1 sequence (O14965 1-403): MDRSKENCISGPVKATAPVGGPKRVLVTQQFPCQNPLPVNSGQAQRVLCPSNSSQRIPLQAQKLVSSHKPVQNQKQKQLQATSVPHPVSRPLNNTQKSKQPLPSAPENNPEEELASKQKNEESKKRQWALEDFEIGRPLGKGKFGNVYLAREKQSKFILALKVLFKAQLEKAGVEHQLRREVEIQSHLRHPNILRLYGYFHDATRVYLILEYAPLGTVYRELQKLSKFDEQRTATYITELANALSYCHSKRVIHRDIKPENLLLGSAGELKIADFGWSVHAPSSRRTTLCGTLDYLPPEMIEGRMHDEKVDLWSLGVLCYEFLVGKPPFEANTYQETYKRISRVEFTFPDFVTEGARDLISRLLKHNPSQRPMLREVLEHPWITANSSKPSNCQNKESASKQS
Outline: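 Radiometric filter-binding assay: commercial aurora-A kinase (5-10 ng) with 200 μM Kemptide in MOPS/EDTA pH 7.0, started with 10 mM Mg acetate and 15 μM ATP plus [γ-33P]-ATP. Incubated 40 min at room temperature, stopped with phosphoric acid, incorporated 33P counted by scintillation.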

[3] = target: CDK9/cyclin T1 (Homo sapiens, UniProt P50750); test: CDK 9 assay (CTD peptide substrate); assay type: biochemical; details: read-out: Kinase Inhibition pIC50 CDK9-cyclin T1 (converted)
Sequence of CDK9/cyclin T1 (P50750 whole entry): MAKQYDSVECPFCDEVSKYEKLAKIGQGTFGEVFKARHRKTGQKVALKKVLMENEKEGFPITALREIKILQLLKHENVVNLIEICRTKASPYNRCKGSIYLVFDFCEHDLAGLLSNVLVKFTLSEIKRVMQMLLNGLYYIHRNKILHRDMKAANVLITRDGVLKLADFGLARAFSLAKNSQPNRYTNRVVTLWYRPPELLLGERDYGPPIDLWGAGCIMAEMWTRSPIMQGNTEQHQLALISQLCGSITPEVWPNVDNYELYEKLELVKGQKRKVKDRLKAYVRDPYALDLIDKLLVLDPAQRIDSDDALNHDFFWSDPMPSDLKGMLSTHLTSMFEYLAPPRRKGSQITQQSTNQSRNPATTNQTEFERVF
Sequence of CDK9/cyclin T1 (O60563 whole entry partner): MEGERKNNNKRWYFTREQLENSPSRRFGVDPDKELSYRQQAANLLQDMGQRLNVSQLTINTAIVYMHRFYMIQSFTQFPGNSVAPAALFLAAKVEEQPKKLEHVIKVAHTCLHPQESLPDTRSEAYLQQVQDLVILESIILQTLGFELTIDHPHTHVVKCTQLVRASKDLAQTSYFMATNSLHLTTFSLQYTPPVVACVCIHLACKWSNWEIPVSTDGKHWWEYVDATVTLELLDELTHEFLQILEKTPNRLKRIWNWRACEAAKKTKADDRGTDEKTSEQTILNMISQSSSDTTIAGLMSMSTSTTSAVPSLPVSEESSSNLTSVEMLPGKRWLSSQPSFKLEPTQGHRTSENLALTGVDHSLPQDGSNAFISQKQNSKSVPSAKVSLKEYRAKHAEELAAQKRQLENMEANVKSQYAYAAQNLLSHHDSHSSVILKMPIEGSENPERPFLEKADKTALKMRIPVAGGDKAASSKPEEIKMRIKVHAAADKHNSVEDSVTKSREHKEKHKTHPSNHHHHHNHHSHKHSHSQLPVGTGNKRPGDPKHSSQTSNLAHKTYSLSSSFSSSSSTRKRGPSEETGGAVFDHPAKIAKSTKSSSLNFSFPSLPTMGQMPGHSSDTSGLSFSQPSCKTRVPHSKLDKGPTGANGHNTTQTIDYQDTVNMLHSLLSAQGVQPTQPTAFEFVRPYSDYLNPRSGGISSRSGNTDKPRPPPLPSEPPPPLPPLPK
Procedure: (§1) Kinase assays. The compounds of the invention above were investigated for their ability to inhibit the enzymatic activity of various protein kinases (Table 2). This was achieved by measurement of incorporation of radioactive phosphate from ATP into appropriate polypeptide substrates. Recombinant protein kinases and kinase complexes were produced or obtained commercially. Assays were performed using 96-well plates and appropriate assay buffers (typically 25 mM β-glycerophosphate, 20 mM MOPS, 5 mM EGTA, 1 mM DTT, 1 mM […], pH 7.4), into which were added 2-4 μg of active enzyme with appropriate substrates. The reactions were initiated by addition of Mg/ATP mix (15 mM MgCl2+100 μM ATP with 30-50 kBq per well of [γ-^32P]-ATP) and mixtures incubated as required at 30° C. Reactions were stopped on ice, followed by filtration through p81 filterplates or GF/C filterplates (Whatman Polyfiltronics, Kent, UK). After washing 3 times with 75 mM aq orthophosphoric acid, plates were dried, scintillant added and incorporated radioactivity measured in a scintillation counter (TopCount, Packard Instruments, Pangbourne, Berks, UK). Compounds for kinase assay were made up as 10 mM stocks in DMSO and diluted into 10% DMSO in assay buffer.
(§2) CDK 7 and 9 assays. CTD peptide substrate (biotinyl-Abx-(Tyr-Ser-Pro-Thr-Ser-Pro-Ser)4-NH2; 1-2 mg/mL) and recombinant human CDK7/cyclin H, CDK9/cyclin T1, or CDK9/cyclin K (0.5-2 μg) were incubated for 45 min at 30° C. in the presence of varying amounts of test compound in 20 mM MOPS pH 7.2, 25 mM β-glycerophosphate, 5 mM EGTA, 1 mM DTT, 1 mM sodium vanadate, 15 mM MgCl2, and 100 μM ATP (containing a trace amount of ^32PγATP) in a total volume of 25 μL in a 96-well microtiter plate. The reaction was stopped by placing the plate on ice for 2 min. Avidin (50 μg) was added to each well, and the plate was incubated at room temp for 30 min. The samples were transferred to a 96-well P81 filter plate, and washed (4×200 μL per well) with 75 mM phosphoric acid. Microscint 40 scintillation liquid (50 μL) was added to each well, and the amount of ^32P incorporation for each sample was measured using a Packard Topcount microplate scintillation counter.

[4] = target: CDK7/cyclin H (Homo sapiens, UniProt P50613); test: CDK 7 assay (CTD peptide substrate); assay type: biochemical; details: read-out: Kinase Inhibition pIC50 CDK7-cyclin H (converted)
Sequence of CDK7/cyclin H (P50613 whole entry): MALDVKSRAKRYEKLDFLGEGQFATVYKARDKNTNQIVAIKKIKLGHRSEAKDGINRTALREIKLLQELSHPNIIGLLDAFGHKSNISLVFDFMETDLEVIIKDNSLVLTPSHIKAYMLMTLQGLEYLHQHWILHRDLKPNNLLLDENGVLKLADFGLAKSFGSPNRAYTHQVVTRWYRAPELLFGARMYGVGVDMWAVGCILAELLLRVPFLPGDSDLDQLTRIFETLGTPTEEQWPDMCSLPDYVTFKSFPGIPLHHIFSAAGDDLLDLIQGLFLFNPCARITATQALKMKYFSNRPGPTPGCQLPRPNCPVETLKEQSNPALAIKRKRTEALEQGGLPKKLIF
Sequence of CDK7/cyclin H (P51946 whole entry partner): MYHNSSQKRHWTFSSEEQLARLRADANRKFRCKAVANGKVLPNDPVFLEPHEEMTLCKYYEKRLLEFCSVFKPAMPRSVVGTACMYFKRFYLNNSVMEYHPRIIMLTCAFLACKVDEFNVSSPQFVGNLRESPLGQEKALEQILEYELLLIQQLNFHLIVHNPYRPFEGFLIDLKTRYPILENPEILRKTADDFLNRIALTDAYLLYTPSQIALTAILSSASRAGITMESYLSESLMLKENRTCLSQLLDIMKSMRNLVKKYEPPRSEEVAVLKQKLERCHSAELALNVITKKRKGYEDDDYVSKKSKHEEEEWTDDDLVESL
Procedure: as §1, §2

Structure (SMILES) | IC50 [1] | IC50 [2] | melting point | IC50 [3] | IC50 [4]
Cc1nc(N)sc1-c1ccnc(Nc2ccc3c(c2)OCO3)n1 [Compound 179, [4-(2-Amino-4-methyl-thiazol-5-yl)-pyrimidin-2-yl]-benzo[1,3]dioxol-5-yl-amine] | 0.1 µM | 0.0794 µM | 211 to 213 °C | – | –
Cc1nc(C)c(-c2ccnc(Nc3ccc(N4CCOCC4)c(C)c3)n2)s1 [Compound 220, [4-(2,4-Dimethyl-thiazol-5-yl)-pyrimidin-2-yl]-(3-methyl-4-morpholin-4-yl-phenyl)-amine] | 1.26 µM | 0.0398 µM | 164 to 166 °C | 6.31 µM | –
CC(=O)NCc1ccc(Nc2nccc(-c3sc(-c4cccnc4)nc3C)n2)cc1 [Compound 103, N-{4-[4-(4-Methyl-2-pyridin-3-yl-thiazol-5-yl)-pyrimidin-2-ylamino]-benzyl}-acetamide] | 2.51 µM | – | 199 to 201 °C | 5.01 µM | 2.51 µM
Cc1nc(N)sc1-c1ccnc(Nc2ccc(N3CCSCC3)cc2)n1 [Compound 201, [4-(2-Amino-4-methyl-thiazol-5-yl)-pyrimidin-2-yl]-(4-thiomorpholin-4-yl-phenyl)-amine] | 1.58 µM | 0.0631 µM | 180 to 182 °C | 1.58 µM | –
CC(=O)N1CCN(c2ccc(Nc3nccc(-c4sc(-c5cccs5)nc4C)n3)cc2)CC1 [Compound 131, 1-(4-{4-[4-(4-Methyl-2-thiophen-2-yl-thiazol-5-yl)-pyrimidin-2-ylamino]-phenyl}-piperazin-1-yl)-ethanone] | 2.51 µM | 0.251 µM | 134 to 136 °C | 2.51 µM | 1.58 µM
Cc1nc(C)c(-c2ccnc(Nc3cccc(CN)c3)n2)s1 [Compound 90, (3-Aminomethyl-phenyl)-[4-(2,4-dimethyl-thiazol-5-yl)-pyrimidin-2-yl]-amine] | 0.398 µM | – | 183 to 184 °C | – | –
Cc1cc(Nc2nccc(-c3sc(N)nc3C)n2)ccc1N1CCOCC1 [Compound 218, [4-(2-Amino-4-methyl-thiazol-5-yl)-pyrimidin-2-yl]-(3-methyl-4-morpholin-4-yl-phenyl)-amine] | 1.26 µM | 0.0631 µM | 256 to 257 °C | 1.58 µM | –
CC(=O)NCc1cccc(Nc2nccc(-c3sc(-c4cccs4)nc3C)n2)c1 [Compound 130, N-{3-[4-(4-Methyl-2-thiophen-2-yl-thiazol-5-yl)-pyrimidin-2-ylamino]-benzyl}-acetamide] | 0.794 µM | 0.158 µM | 223 to 225 °C | – | –
CCNc1nc(C)c(-c2ccnc(Nc3ccc4c(c3)OCO4)n2)s1 [Compound 178, Benzo[1,3]dioxol-5-yl-[4-(2-ethylamino-4-methyl-thiazol-5-yl)-pyrimidin-2-yl]-amine] | 0.2 µM | 0.158 µM | 194 to 195 °C | – | –
CC(=O)NCc1cccc(Nc2nccc(-c3sc(-c4ccc(C)nc4)nc3C)n2)c1 [Compound 108, N-(3-{4-[4-Methyl-2-(6-methyl-pyridin-3-yl)-thiazol-5-yl]-pyrimidin-2-ylamino}-benzyl)-acetamide] | – | 2.51 µM | 227 to 229 °C | – | –
Cc1cc(Nc2nccc(-c3sc(N)nc3C)n2)ccc1N1CCCCC1 [Compound 206, [4-(2-Amino-4-methyl-thiazol-5-yl)-pyrimidin-2-yl]-(3-methyl-4-piperidin-1-yl-phenyl)-amine] | 1.26 µM | 0.158 µM | 221 to 223 °C | – | –

Other lines, results leading:

IC50 [1] | IC50 [2] | melting point | IC50 [3] | IC50 [4] | Structure (SMILES)
1 µM | 0.0631 µM | 213 to 214 °C | 3.16 µM | – | CCNc1nc(C)c(-c2ccnc(Nc3ccc(N4CCOCC4)c(C)c3)n2)s1 [Compound 219, [4-(2-Ethylamino-4-methyl-thiazol-5-yl)-pyrimidin-2-yl]-(3-methyl-4-morpholin-4-yl-phenyl)-amine]
5.01 µM | 0.158 µM | 173 to 174 °C | – | – | Cc1nc(C)c(-c2ccnc(Nc3ccc(N4CCSCC4)cc3)n2)s1 [Compound 202, [4-(2,4-Dimethyl-thiazol-5-yl)-pyrimidin-2-yl]-(4-thiomorpholin-4-yl-phenyl)-amine]
– | 0.794 µM | 201 to 202 °C | – | – | COc1cc(Nc2nccc(-c3sc(NCCc4ccccc4)nc3C)n2)cc(OC)c1 [Compound 159, (3,5-Dimethoxy-phenyl)-[4-(4-methyl-2-phenethylamino-thiazol-5-yl)-pyrimidin-2-yl]-amine]
2 µM | 0.126 µM | 207 to 209 °C | 3.16 µM | – | CCNc1nc(C)c(-c2ccnc(Nc3ccc(N4CCSCC4)cc3)n2)s1 [Compound 203, [4-(2-Ethylamino-4-methyl-thiazol-5-yl)-pyrimidin-2-yl]-(4-thiomorpholin-4-yl-phenyl)-amine]
1 µM | 0.2 µM | 226 to 228 °C | – | – | Cc1nc(NCCc2ccccc2)sc1-c1ccnc(Nc2ccc(N3CCOCC3)cc2)n1 [Compound 158, [4-(4-Methyl-2-phenethylamino-thiazol-5-yl)-pyrimidin-2-yl]-(4-morpholin-4-yl-phenyl)-amine]
0.251 µM | 0.0251 µM | 224 to 226 °C | – | – | CCNc1nc(C)c(-c2ccnc(Nc3ccc(N4CCOCC4)c(OC)c3)n2)s1 [Compound 157, [4-(2-Ethylamino-4-methyl-thiazol-5-yl)-pyrimidin-2-yl]-(3-methoxy-4-morpholin-4-yl-phenyl)-amine]
